Data: ChEMBL document CHEMBL5120871, “Identification of benzamides derivatives of norfloxacin as promising microRNA-21 inhibitors via repressing its transcription” (Bioorg Med Chem, 2022)
The source made the active and inactive calls. The calls are words filed in the database; no cut-off is given here.

What was measured:
[1] = tested on: microRNA 21; assay: Inhibition of miR-21 (unknown origin) maturation assessed as cleavage of pre-miR-21 at 5 uM by RT-qPCR analysis relative to control; assay type: nucleic-acid assay; details: Homo sapiens
[2] = tested on: HeLa; assay: Antiproliferative activity against human HeLa cells incubated for 24 hrs by CCK-8 assay; assay type: functional, cell-based
[3] = tested on: microRNA 21; assay: Inhibition of wild type full length miR-21 in human HeLa cells co-expressing firefly luciferase and renilla luciferase gene assessed as fold change in Luc/Rlu by measuring relative […] intensity at 20 uM by Dual-Luciferase reporter based luminometer analysis; assay type: cell-based
[4] = tested on: HCT-116; assay: Antiproliferative activity against human HCT-116 cells incubated for 24 hrs by CCK-8 assay; assay type: functional, cell-based; details: HCT-116, 24 h
[5] = target: microRNA 21; assay: Inhibition of miR-21 in human HeLa cells assessed as increase in luciferase activity measured after 48 hrs by bright Glo-luciferase reporter gene assay; assay type: cell-based
[6] = tested on: microRNA 21; assay: Inhibition of miR-21 maturation in human MCF7 cells assessed as reduction in pre-miR-21 expression at 5 uM incubated for 48 hrs by RT-PCR analysis relative to control; assay type: cell-based
[7] = tested on: microRNA 21; assay: Inhibition of miR-21 in human HeLa cells assessed as reduction in mature miR-21 level at 10 to 20 uM measured after 24 hrs by RT-qPCR analysis; assay type: cell-based; details: dose 10-20 µM
[8] = tested on: HeLa; assay: Induction of apoptosis in human HeLa cells assessed as viable cells at 20 uM incubated for 24 hrs by annexin V-FITC and propidium iodide staining based flow cytometry (reference value: 93.54%); assay type: functional; details: read-out: Activity
[9] = tested on: HeLa; assay: Induction of apoptosis in human HeLa cells assessed as viable cells at 10 uM incubated for 24 hrs by annexin V-FITC and propidium iodide staining based flow cytometry (reference value: 93.54%); assay type: functional; details: read-out: Activity
[10] = tested on: microRNA 21; assay: Inhibition of miR-21 in human HeLa cells assessed as reduction in mature miR-21 level at 10 to 20 uM measured after 48 hrs by RT-qPCR analysis relative to control; assay type: cell-based; details: dose 10-20 µM
[11] = Cytotoxicity against human BEAS-2B cells assessed as reduction in cell proliferation incubated for 24 hrs by CCK-8 assay; assay type: toxicity, cell-based
[12] = tested on: microRNA 21; assay: Inhibition of miR-21 in human HeLa cells assessed as upregulation of EGR1 level at 10 uM incubated for 48 hrs by RT-qPCR analysis; assay type: cell-based
[13] = tested on: HeLa; assay: Induction of apoptosis in human HeLa cells assessed as early apoptotic cells at 10 uM incubated for 24 hrs by annexin V-FITC and propidium iodide staining based flow cytometry (reference value: 4.35%); assay type: functional
[14] = tested on: microRNA 21; assay: Inhibition of miR-21 in human HeLa cells assessed as downregulation of ZNF251 level at 10 uM incubated for 48 hrs by RT-qPCR analysis; assay type: cell-based
[15] = tested on: HeLa; assay: Induction of apoptosis in human HeLa cells assessed as necrotic cells at 20 uM incubated for 24 hrs by annexin V-FITC and propidium iodide staining based flow cytometry (reference value: 0.08%); assay type: functional
[16] = tested on: microRNA 21; assay: Inhibition of miR-21 in human HeLa cells assessed as increase in PTEN level at 10 to 20 uM incubated for 48 hrs by RT-qPCR analysis; assay type: cell-based; details: dose 10-20 µM
[17] = tested on: microRNA 21; assay: Inhibition of miR-21 in human HeLa cells assessed as upregulation of SLIT2 level at 10 uM incubated for 48 hrs by RT-qPCR analysis; assay type: cell-based
[18] = tested on: HCT-116; assay: Inhibition of colony formation in human HCT-116 cells incubated for 14 days by crystal violet staining based assay; assay type: functional, cell-based; details: dose 0.1-10 µM, time 14.0 day, DDE = dose-dependent effect
[19] = tested on: HeLa; assay: Induction of apoptosis in human HeLa cells assessed as necrotic cells at 10 uM incubated for 24 hrs by annexin V-FITC and propidium iodide staining based flow cytometry (reference value: 0.08%); assay type: functional
[20] = tested on: microRNA 21; assay: Inhibition of miR-21 in human HeLa cells assessed as downregulation of ATF4 level at 10 uM incubated for 48 hrs by RT-qPCR analysis; assay type: cell-based
[21] = tested on: microRNA 21; assay: Inhibition of miR-21 in human HeLa cells assessed as downregulation of pri-miR-21 level at 10 uM and measured for 24 to 48 hrs by RT-qPCR analysis; assay type: cell-based; details: time 24-48 hrs
[22] = tested on: HeLa; assay: Inhibition of colony formation in human HeLa cells incubated for 14 days by crystal violet staining based assay; assay type: functional, cell-based; details: dose 0.1-10 µM, time 14.0 day, DDE = dose-dependent effect
[23] = tested on: HeLa; assay: Induction of apoptosis in human HeLa cells assessed as late apoptotic cells at 20 uM incubated for 24 hrs by annexin V-FITC and propidium iodide staining based flow cytometry (reference value: 2.03%); assay type: functional
[24] = tested on: HeLa; assay: Induction of apoptosis in human HeLa cells assessed as late apoptotic cells at 10 uM incubated for 24 hrs by annexin V-FITC and propidium iodide staining based flow cytometry (reference value: 2.03%); assay type: functional
[25] = tested on: microRNA 21; assay: Inhibition of miR-21 in human HeLa cells assessed as downregulation of pre-miR-21 level at 10 uM and measured for 24 to 48 hrs by RT-qPCR analysis; assay type: cell-based; details: time 24-48 hrs
[26] = tested on: microRNA 21; assay: Inhibition of wild type full length miR-21 in human HeLa cells co-expressing firefly luciferase and renilla luciferase gene assessed as fold change in Luc/Rlu by measuring relative […] intensity at 10 uM by Dual-Luciferase reporter based luminometer analysis; assay type: cell-based
[27] = tested on: HeLa; assay: Inhibition of cell migration in human HeLa cells at 10 to 20 uM and measured after 24 hrs by crystal violet staining based transwell migration assay; assay type: functional; details: dose 10-20 µM
[28] = tested on: HeLa; assay: Induction of apoptosis in human HeLa cells assessed as early apoptotic cells at 20 uM incubated for 24 hrs by annexin V-FITC and propidium iodide staining based flow cytometry (reference value: 4.35%); assay type: functional
[29] = tested on: microRNA 21; assay: Inhibition of miR-21 maturation in human LN-229 cells assessed as reduction in pre-miR-21 expression at 30 uM measured upto 24 hrs by RT-PCR analysis relative to control; assay type: cell-based
[30] = tested on: microRNA 21; assay: Inhibition of miR-21 maturation in human MCF7 cells assessed as reduction in pre-miR-21 expression at 30 uM measured upto 24 hrs by RT-PCR analysis relative to control; assay type: cell-based
[31] = tested on: microRNA 21; assay: Inhibition of miR-21 maturation in human SGC-7901 cells assessed as reduction in pre-miR-21 expression at 30 uM measured upto 24 hrs by RT-PCR analysis relative to control; assay type: cell-based
[32] = tested on: microRNA 21; assay: Inhibition of miR-21 maturation in human U87 cells assessed as reduction in pre-miR-21 expression at 30 uM measured upto 24 hrs by RT-PCR analysis relative to control; assay type: cell-based

## NC[C@H]1O[C@H](O[C@H]2[C@H](O[C@@H]3O[C@H](CSCCNC(=O)CCCCCn4cc(COCCOc5ccc6c(c5)C(=O)N(O)C(=O)C6)nn4)[C@@H](O[C@H]4O[C@H](CN)[C@@H](O)[C@H](O)[C@H]4N)[C@H]3O)[C@@H](O)[C@H](N)C[C@@H]2N)[C@H](N)[C@@H](O)[C@@H]1O
[1]
  inhibition: 90%

## CCn1cc(C(=O)Nc2ccc(C(=O)NC(C)C)cc2)c(=O)c2cc(F)c(N3CCNCC3)cc21
[2]
  IC50: > 100 µM
[3]
  fold change (FC): 1.8

## C#CCNC(=O)c1ccc(NC(=O)c2cn(CC)c3cc(N4CCNCC4)c(F)cc3c2=O)cc1
[3]
  fold change (FC): 1.15

## CC[C@@]1(O)C(=O)OCc2c1cc1n(c2=O)Cc2cc3cc(O)ccc3nc2-1 [HYDROXYCAMPTOTHECIN]
[2]
  IC50: 0.06 µM
[4]
  IC50: 0.05 µM

## CCn1cc(C(=O)Nc2ccc(F)cc2)c(=O)c2cc(F)c(N3CCN(Cc4ccccc4)CC3)cc21
[2]
  IC50: > 100 µM
[4]
  IC50: > 100 µM
[3]
  fold change (FC): 1.63

## CCn1cc(C(=O)NCCN2CCCCC2)c(=O)c2cc(F)c(N3CCNCC3)cc21
[3]
  fold change (FC): 0.91

## CCn1cc(C(=O)Nc2ccc(C(=O)NC3CCOCC3)cc2)c(=O)c2cc(F)c(N3CCNCC3)cc21
[3]
  fold change (FC): 0.69

## CCn1cc(C(=O)O)c(=O)c2cc(F)c(N3CCNCC3)cc21
[3]
  fold change (FC): 1.08

## C#CCNC(=O)c1ccc(NC(=O)c2cn(CC)c3cc(N4CCN(CC5CC5)CC4)c(F)cc3c2=O)cc1
[3]
  fold change (FC): 1.07

## C#CCNC(=O)c1ccc(/N=N/c2ccccc2)cc1
[3]
  fold change (FC): 1.41
[5]
  EC50: 2 µM

## CCN(CC)CCNC(=O)c1ccc(NC(=O)c2cn(CC)c3cc(N4CCNCC4)c(F)cc3c2=O)cc1
[3]
  fold change (FC): 1.36

## CCn1cc(C(=O)Nc2ccc(C(=O)NCC(C)C)cc2)c(=O)c2cc(F)c(N3CCNCC3)cc21
[2]
  IC50: 13.2 µM
[3]
  fold change (FC): 1.92

## CN[C@@H]1[C@H](O[C@H]2[C@H](O[C@H]3[C@H](O)[C@@H](O)[C@H](N=C(N)N)[C@@H](O)[C@@H]3N=C(N)N)O[C@@H](C)[C@]2(O)C=O)O[C@@H](CO)[C@H](O)[C@H]1O
[6]
  inhibition: 80%
[3]
  fold change (FC): 1.1

## CCn1cc(C(=O)Nc2ccc(C(=O)NCCN3CCCCC3)cc2)c(=O)c2cc(F)c(N3CCNCC3)cc21
[7]
  inhibition: Active
[8]
  viability at 20 µM: 84.6%
[9]
  viability at 10 µM: 91.8%
[10]
  inhibition: Active
[11]
  IC50 at 24 h: > 100 µM
[12]
  inhibition: Active
[2]
  IC50: 5.5 µM
[13]
  Activity: 5.74%
[14]
  inhibition: Active
[15]
  Activity: 0.58%
[16]
  inhibition: Active
[17]
  inhibition: Active
[18]
  inhibition: Dde
[19]
  Activity: 0.24%
[20]
  inhibition: Active
[4]
  IC50: 2.8 µM
[21]
  inhibition: Active
[22]
  inhibition: Dde
[3]
  fold change (FC): 2.01
[23]
  Activity: 4.18%
[24]
  Activity: 2.23%
[25]
  inhibition: Active
[26]
  fold change (FC): 1.42
[27]
  Activity: Active
[28]
  Activity: 10.67%

## C#CCNC(=O)c1ccc(NC(=O)c2ccccc2Br)cc1
[3]
  fold change (FC): 1.64

## CCn1cc(C(=O)Nc2ccccc2)c(=O)c2cc(F)c(N3CCN(Cc4ccccc4)CC3)cc21
[3]
  fold change (FC): 1.24

## CCn1cc(C(=O)Nc2ccc(C(=O)NCC3CC3)cc2)c(=O)c2cc(F)c(N3CCNCC3)cc21
[3]
  fold change (FC): 0.72

## CCn1cc(C(=O)N2CCCCC2)c(=O)c2cc(F)c(N3CCN(Cc4ccccc4)CC3)cc21
[3]
  fold change (FC): 1.12

## C#CCNC(=O)c1cn(CC)c2cc(N3CCN(Cc4ccccc4)CC3)c(F)cc2c1=O
[3]
  fold change (FC): 1

## C#CCNC(=O)c1ccc(NC(=O)c2cn(CC)c3cc(N4CCN(C(=O)CC56CC7CC(CC(C7)C5)C6)CC4)c(F)cc3c2=O)cc1
[3]
  fold change (FC): 0.98

## C#CCNC(=O)c1ccc(NC(=O)c2cn(CC)c3cc(N4CCN(Cc5ccccc5)CC4)c(F)cc3c2=O)cc1
[3]
  fold change (FC): 1.47

## N#CC1CNC(N)NC1N (centres undefined)
[29]
  inhibition: 50%
[30]
  inhibition: 50%
[31]
  inhibition: 50%
[32]
  inhibition: 50%

## CCCCNC(=O)c1ccc(NC(=O)c2cn(CC)c3cc(N4CCNCC4)c(F)cc3c2=O)cc1
[3]
  fold change (FC): 0.98

## CCn1cc(C(=O)NC2CCN(Cc3ccccc3)CC2)c(=O)c2cc(F)c(N3CCNCC3)cc21
[3]
  fold change (FC): 1.09

## CCn1cc(C(=O)NCCN2CCOCC2)c(=O)c2cc(F)c(N3CCNCC3)cc21
[3]
  fold change (FC): 0.57
